*1 amine or outer side, *2 acyl side, *3 side chain or, on linkers, in order; H or OH if unused. Where a SMILES comes first, the peptide text is derived from it. Bridges are numbered along the chain shown (N, C = ends). [ ]: non-standard residue; d: D form. The star is where a group is joined. hPhe(3,5-F2-4-CF3) = N[C@@H](CCc1cc(F)c(C(F)(F)F)c(F)c1)C(=O)O; hPhe(3-Cl-4-CF3) = N[C@@H](CCc1ccc(C(F)(F)F)c(Cl)c1)C(=O)O; NPrPhe(4-CF3) = CCCN[C@@H](Cc1ccc(C(F)(F)F)cc1)C(=O)O; NMeGly(cPent) = CN[C@H](C(=O)O)C1CCCC1; X7 = C[C@@](N[*:1])(C(=O)[*:2])C1CC1; NMeD = CN[C@@H](CC(=O)O)C(=O)O; NMeL = CN[C@@H](CC(C)C)C(=O)O; NMeAbu = CC[C@H](NC)C(=O)O; Morpholide = C1CN(*)CCO1; Ac5c = NC1(C(=O)O)CCCC1; Ac4c = NC1(C(=O)O)CCC1; Sar = CNCC(=O)O
Assays:
[1] = tested on: human lung cancer strain NCI-H441; format: cell-based
Procedure, shortened: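 Proliferation was scored by […] measured after the reagent was added to cultures kept at 37°C in 5% carbon dioxide.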

[2] = molecular target: GDP-bound NRAS wild-type protein (Homo sapiens, UniProt P01111); assay: Binding to NRAS by surface plasmon resonance (SPR), KD and KD ratio to KRAS
Chain of GDP-bound NRAS wild-type protein (P01111 whole entry): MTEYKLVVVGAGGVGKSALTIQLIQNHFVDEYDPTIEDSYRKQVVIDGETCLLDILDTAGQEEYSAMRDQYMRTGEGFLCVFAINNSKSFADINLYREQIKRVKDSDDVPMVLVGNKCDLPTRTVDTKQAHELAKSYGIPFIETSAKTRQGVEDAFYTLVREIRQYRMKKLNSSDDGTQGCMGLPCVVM
Procedure, shortened: (§1)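 SPR, 30°C: Avi-biotin RAS·GDP captured via Biotin CAPture (~100–300 RU); running buffer HBS pH 7.4, 1 mM DTT, 10 mM MgCl2, 0.01% Tween 20, 10 µM GDP, 4% DMSO. Single-cycle kinetics, 100 µL/min, 75 s injections; 1:1 model → KD.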

HRAS wild-type protein = HRAS wild-type protein (Homo sapiens, UniProt P01112); assay: Binding to HRAS by surface plasmon resonance (SPR), KD and KD ratio to KRAS
Chain of HRAS wild-type protein (P01112 whole entry): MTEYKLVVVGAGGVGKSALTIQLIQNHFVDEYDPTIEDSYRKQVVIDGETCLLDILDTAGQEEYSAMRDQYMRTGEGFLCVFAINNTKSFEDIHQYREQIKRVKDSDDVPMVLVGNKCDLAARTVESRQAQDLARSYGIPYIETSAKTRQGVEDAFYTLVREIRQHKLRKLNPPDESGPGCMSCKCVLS
Procedure, shortened: as §1

[3] = ratio of KD value for GDP-bound NRAS wild-type protein to KD value for KRAS (SPR)
[4] = ratio of KD value for HRAS wild-type protein to KD value for KRAS (SPR)
[5] = ratio of the KD value with respect to GDP-bound NRAS wild-type protein to the KD value with respect to KRAS
[6] = ratio of the KD value with respect to HRAS wild-type protein to the KD value with respect to KRAS
[7] = ratio of KD for GDP-bound NRAS wild-type protein to KD for KRAS
[8] = ratio of KD for HRAS wild-type protein to KD for KRAS

SMILES | IC50 [1] [nM] | NRAS /KRAS [2, 3] | HRAS /KRAS (HRAS wild-type protein; [4]) | NRAS /KRAS [2, 5] | HRAS /KRAS (HRAS wild-type protein; [6]) | NRAS /KRAS [2, 7] | HRAS /KRAS (HRAS wild-type protein; [8])
CCO[C@@H]1C[C@H]2C(=O)NC3(CC(C)(C)C3)C(=O)N(C)[C@@H](C3CCCC3)C(=O)N(C)[C@H](C(=O)N(C)C)CC(=O)N(C)[C@@H](COC)C(=O)N[C@@H]([C@@H](C)CC)C(=O)N(C)CC(=O)N(C)[C@H]3C/C=C\CCN(C3=O)[C@@H](Cc3ccc(C(F)(F)F)cc3)C(=O)N(C)CC(=O)N[C@@H](CCc3ccc(C(F)(F)F)c(Cl)c3)C(=O)N2C1 [PP1753] | 5.9 | A (a compound having 10 or more and less than 20 is denoted as A) | A (a compound having 10 or more and less than 20 is denoted as A) | – | – | – | –
CCO[C@@H]1C[C@H]2C(=O)NC3(CCC3)C(=O)N(C)[C@@H](C3CCCC3)C(=O)N(CCc3ccccc3)[C@H](C(=O)N(C)C)CC(=O)N(C)[C@@H](CC)C(=O)N[C@@H]([C@@H](C)CC)C(=O)N(C)CC(=O)N(C)[C@H]3CCCCCN(C3=O)[C@@H](Cc3ccc(C(F)(F)F)cc3)C(=O)N(C)CC(=O)N[C@@H](CCc3cc(F)c(C(F)(F)F)c(F)c3)C(=O)N2C1 [PP0637] | 952 | – | – | B (a compound having 3 or more and less than 10 is denoted as B) | B (a compound having 3 or more and less than 10 is denoted as B) | – | –
CCCN1C(=O)CN(C)C(=O)CN(C)C(=O)[C@H]([C@@H](C)CC)NC(=O)[C@H](CC)N(C)C(=O)C[C@@H](C(=O)N2CCOCC2)N(C)C(=O)[C@H](C2CCCC2)N(C)C(=O)C2(CCCC2)NC(=O)[C@@H]2CCCN2C(=O)[C@H](CCc2ccc(C(F)(F)F)c(Cl)c2)NC(=O)CN(C)C(=O)[C@@H]1Cc1ccc(C(F)(F)F)cc1 [PP0190] ([NMeAbu]I[Sar][Sar][NPrPhe(4-CF3)][Sar][hPhe(3-Cl-4-CF3)]P[Ac5c][NMeGly(cPent)][NMeD]-Morpholide; lactam N-11) | 4.1 | – | – | – | – | B (a compound having 3 or more and less than 10 is denoted as B) | B (a compound having 3 or more and less than 10 is denoted as B)
CCO[C@@H]1C[C@H]2C(=O)NC3(CC(C)(C)C3)C(=O)N(C)[C@@H](C3CCCC3)C(=O)N(C)[C@H](C(=O)N(C)CC)CC(=O)N(C)[C@@H](CC(C)C)C(=O)N[C@@H]([C@@H](C)OCC)C(=O)N(C)CC(=O)N(C)[C@H]3C/C=C\CCN(C3=O)[C@@H](Cc3ccc(C(F)(F)F)cc3)C(=O)N(C)CC(=O)N[C@@H](CCc3cc(F)c(C(F)(F)F)c(F)c3)C(=O)N2C1 [PP1919] | 6.3 | – | – | A (a compound having 10 or more and less than 20 is denoted as A) | A (a compound having 10 or more and less than 20 is denoted as A) | – | –
CCC[C@H]1C(=O)N[C@@H]([C@@H](C)CC)C(=O)N(C)CC(=O)N(C)[C@H]2C/C=C\CCN(C2=O)[C@@H](Cc2ccc(C(F)(F)F)cc2)C(=O)N(C)CC(=O)N[C@@H](CCc2ccc(C(F)(F)F)c(OC)c2)C(=O)N2C[C@H](OCC)C[C@H]2C(=O)N(C)C2(CCC2)C(=O)N(C)[C@@H](C2CCCC2)C(=O)N(C)[C@H](C(=O)N(C)C)CC(=O)N1C [PP2312] | 1.6 | – | – | A (a compound having 10 or more and less than 20 is denoted as A) | B (a compound having 3 or more and less than 10 is denoted as B) | – | –
CCO[C@@H]1C[C@H]2C(=O)NC3(CCC3)C(=O)N(C)[C@@H](C3CCCC3)C(=O)N(C)[C@H](C(=O)N(C)C)CC(=O)N(C)[C@@H](CC)C(=O)N[C@@H]([C@@H](C)CC)C(=O)N(C)CC(=O)N(C)[C@H]3CCCCN(C3=O)[C@@H](Cc3ccc(C(F)(F)F)cc3)C(=O)N(C)CC(=O)N[C@@H](CCc3ccc(C(F)(F)F)c(OC)c3)C(=O)N2C1 [PP0884] | 6.2 | – | – | – | – | C (A compound having a KD ratio of 0.1 or more and less than 3 is denoted as C) | C (A compound having a KD ratio of 0.1 or more and less than 3 is denoted as C)
CCO[C@@H]1C[C@H]2C(=O)NC3(CCC3)C(=O)N(C)[C@@H](C3CCCC3)C(=O)N(C)[C@H](C(=O)N3CCOCC3)CC(=O)N(C)[C@@H](COC)C(=O)N[C@@H]([C@@H](C)CC)C(=O)N(C)CC(=O)N(C)[C@H]3CCCCCN(C3=O)[C@@H](Cc3ccc(C(F)(F)F)cc3)C(=O)N(C)CC(=O)N[C@@H](CCc3cc(F)c(C(F)(F)F)c(F)c3)C(=O)N2C1 [PP0689] | 34.4 | – | – | B (a compound having 3 or more and less than 10 is denoted as B) | B (a compound having 3 or more and less than 10 is denoted as B) | – | –
CCCN1C(=O)CN(C)C(=O)CNC(=O)[C@H]([C@@H](C)CC)NC(=O)[C@H](CC(C)C)N(C)C(=O)C[C@@H](C(=O)N2CCOCC2)N(C)C(=O)[C@H](C2CCCC2)N(C)C(=O)C2(CCC2)NC(=O)[C@@H]2CCCN2C(=O)[C@H](CCc2ccc(C(F)(F)F)c(Cl)c2)NC(=O)CN(C)C(=O)[C@@H]1Cc1ccc(C(F)(F)F)cc1 [PP0393] ([NMeL]IG[Sar][NPrPhe(4-CF3)][Sar][hPhe(3-Cl-4-CF3)]P[Ac4c][NMeGly(cPent)][NMeD]-Morpholide; lactam N-11) | 2.7 | – | – | B (a compound having 3 or more and less than 10 is denoted as B) | B (a compound having 3 or more and less than 10 is denoted as B) | – | –
CCCN(C)C(=O)[C@@H]1CC(=O)N(C)[C@@H](COCC)C(=O)N[C@@H]([C@@H](C)CC)C(=O)N(C)CC(=O)N(C)[C@H]2C/C=C\CCN(C2=O)[C@@H](Cc2ccc(C(F)(F)F)cc2)C(=O)N(C)CC(=O)N[C@@H](CCc2cc(F)c(C(F)(F)F)c(F)c2)C(=O)N2C[C@@H](C)C[C@H]2C(=O)NC2(CC(C)(C)C2)C(=O)N(C)[C@@H](C2CCCC2)C(=O)N1C [PP2041] | 7.7 | – | – | A (a compound having 10 or more and less than 20 is denoted as A) | A (a compound having 10 or more and less than 20 is denoted as A) | – | –
CCCN1C(=O)CN(C)C(=O)CN(C)C(=O)[C@H]([C@@H](C)CC)NC(=O)[C@H](CC(C)C)N(C)C(=O)C[C@@H](C(=O)N(C)C)N(C)C(=O)[C@H](C2CCCC2)N(C)C(=O)[C@](C)(C2CC2)NC(=O)[C@@H]2CCCN2C(=O)[C@H](CCc2cc(F)c(C(F)(F)F)c(F)c2)NC(=O)CN(C)C(=O)[C@@H]1Cc1ccc(C(F)(F)F)cc1 [PP0734] ([NMeL]I[Sar][Sar][NPrPhe(4-CF3)][Sar][hPhe(3,5-F2-4-CF3)]P[X7][NMeGly(cPent)][NMeD]-NMe2; lactam N-11) | 28.8 | – | – | B (a compound having 3 or more and less than 10 is denoted as B) | C (A compound having a KD ratio of 0.1 or more and less than 3 is denoted as C) | – | –
CCO[C@@H]1C[C@H]2C(=O)NC3(CC(C)(C)C3)C(=O)N(C)[C@@H](C3CCCC3)C(=O)N3CCC[C@@H]3CC(=O)N(C)[C@@H](CC)C(=O)N[C@@H]([C@@H](C)CC)C(=O)N(C)CC(=O)N(C)[C@H]3C/C=C\CCN(C3=O)[C@@H](Cc3ccc(C(F)(F)F)cc3)C(=O)N(C)CC(=O)N[C@@H](CCc3cc(F)c(C(F)(F)F)c(F)c3)C(=O)N2C1 [PP1606] | 12.6 | B (a compound having 3 or more and less than 10 is denoted as B) | B (a compound having 3 or more and less than 10 is denoted as B) | – | – | – | –
CCO[C@@H]1C[C@H]2C(=O)NC3(CCC3)C(=O)N(C)[C@@H](C(CC)CC)C(=O)N(C)[C@H](C(=O)N3CCCCC3)CC(=O)N(C)[C@H]3CCCC/C=C/c4ccc(cc4)C[C@@H](C(=O)N(C)CC(=O)N[C@@H](CCc4ccc(Cl)c(Cl)c4)C(=O)N2C1)N1CC/C=C\C[C@@H](C1=O)N(C)C(=O)CN(C)C(=O)[C@H]([C@@H](C)CC)NC3=O [PP3046] | 16.7 | – | – | – | – | AA (a compound having 20 or more is denoted as AA) | A (a compound having 10 or more and less than 20 is denoted as A)
